Experimental data published in article PMC12933751 (RSC Advances, 2026).
pKd: −log10 of the molar value.

Target: T1, ArnT (undecaprenyl phosphate-alpha-4-amino-4-deoxy-L-arabinose arabinosyl transferase) (Pseudomonas aeruginosa, UniProt Q02R27)
T1 sequence (Q02R27 1-549): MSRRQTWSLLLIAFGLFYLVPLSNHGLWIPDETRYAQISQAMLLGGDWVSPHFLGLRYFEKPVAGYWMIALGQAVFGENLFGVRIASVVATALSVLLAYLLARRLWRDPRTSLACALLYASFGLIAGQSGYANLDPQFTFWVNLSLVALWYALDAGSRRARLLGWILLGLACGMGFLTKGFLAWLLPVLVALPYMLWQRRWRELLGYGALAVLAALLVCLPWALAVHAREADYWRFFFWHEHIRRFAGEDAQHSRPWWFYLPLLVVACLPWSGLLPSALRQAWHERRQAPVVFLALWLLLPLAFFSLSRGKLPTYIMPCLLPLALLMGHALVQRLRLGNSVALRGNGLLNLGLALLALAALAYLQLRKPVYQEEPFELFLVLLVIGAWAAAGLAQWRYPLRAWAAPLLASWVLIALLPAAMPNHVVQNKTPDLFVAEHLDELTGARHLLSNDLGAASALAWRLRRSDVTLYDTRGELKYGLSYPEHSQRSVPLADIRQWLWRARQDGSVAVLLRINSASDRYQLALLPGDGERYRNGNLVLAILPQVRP
Experiment: intrinsic tryptophan fluorescence quenching titration, one-site binding fit

## C[C@@]12CC[C@@H]3[C@@](CC[C@@H]4[C@@](C)(COC(=O)C(=O)O)CCC[C@]43C)(CC1)C2 [FDO-H]
  pKd: ~5.00
